Assays:
[1] = molecular target: T1, Cytochrome P450 3A4 (Homo sapiens, UniProt P08684); experiment: Inhibition of human recombinant CYP3A4 expressed in Saccharomyces cerevisiae by fluorescence assay; format: ADME
[2] = molecular target: T2, Cytochrome P450 2C9 (Homo sapiens, UniProt P11712); experiment: Inhibition of human recombinant CYP2C9 expressed in Saccharomyces cerevisiae by fluorescence assay; format: ADME
[3] = species: Homo sapiens; experiment: Selectivity for human recombinant CYP2C9 over human recombinant CYP3A4
[4] = molecular target: T2, Cytochrome P450 2C9; experiment: Binding affinity to purified human recombinant CYP2C9 expressed in Escherichia coli assessed as spectral dissociation constant; format: ADME
[5] = molecular target: T1, Cytochrome P450 3A4; experiment: Binding affinity to purified human recombinant CYP3A4 expressed in Escherichia coli assessed as spectral dissociation constant; format: ADME

T1 sequence (P08684 whole entry): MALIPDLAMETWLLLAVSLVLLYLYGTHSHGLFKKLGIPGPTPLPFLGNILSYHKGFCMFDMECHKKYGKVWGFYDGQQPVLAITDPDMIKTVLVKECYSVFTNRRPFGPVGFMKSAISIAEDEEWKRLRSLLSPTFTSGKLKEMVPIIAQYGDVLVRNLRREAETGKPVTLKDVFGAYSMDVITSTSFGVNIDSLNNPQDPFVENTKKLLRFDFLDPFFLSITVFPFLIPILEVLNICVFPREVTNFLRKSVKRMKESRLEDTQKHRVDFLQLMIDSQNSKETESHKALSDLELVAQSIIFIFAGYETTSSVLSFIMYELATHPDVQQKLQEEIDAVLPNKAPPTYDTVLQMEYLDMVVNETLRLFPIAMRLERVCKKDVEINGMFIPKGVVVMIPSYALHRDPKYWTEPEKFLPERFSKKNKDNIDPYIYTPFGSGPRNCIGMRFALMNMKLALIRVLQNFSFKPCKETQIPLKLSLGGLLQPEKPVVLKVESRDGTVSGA
T2 sequence (P11712 whole entry): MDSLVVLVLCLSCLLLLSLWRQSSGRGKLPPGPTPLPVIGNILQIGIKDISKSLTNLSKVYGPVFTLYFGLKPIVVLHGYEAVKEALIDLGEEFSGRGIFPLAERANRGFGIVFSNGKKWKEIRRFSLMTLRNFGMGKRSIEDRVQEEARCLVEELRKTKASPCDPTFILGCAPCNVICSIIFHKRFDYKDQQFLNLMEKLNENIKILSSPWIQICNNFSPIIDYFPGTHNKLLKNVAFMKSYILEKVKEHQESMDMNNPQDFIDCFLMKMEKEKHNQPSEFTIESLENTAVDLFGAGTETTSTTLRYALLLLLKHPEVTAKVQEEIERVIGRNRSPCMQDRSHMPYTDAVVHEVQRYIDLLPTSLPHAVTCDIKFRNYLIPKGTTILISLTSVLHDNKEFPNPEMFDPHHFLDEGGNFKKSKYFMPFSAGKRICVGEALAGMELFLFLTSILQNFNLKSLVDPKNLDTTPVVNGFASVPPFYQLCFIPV

## Cc1cnc(CNc2cc(-c3ccccc3)nc(-c3ccncc3)n2)nc1
[1]
  IC50: 0.071 µM
[2]
  IC50: 4.8 µM

## CS(=O)(=O)c1ccc(Cn2cc(-c3ccncc3)cn2)cc1
[1]
  IC50: 26 µM
[3]
  Selectivity ratio: 20
[2]
  IC50: 1.3 µM

## COC(=O)[C@H](Cc1cnc[nH]1)NCc1ccccc1
[1]
  IC50: 1.5 µM
[2]
  IC50: 20 µM

## CS(=O)(=O)Cc1cc(N2CCCC2)nc(-c2ccncc2)n1
[1]
  IC50: 1.3 µM
[2]
  IC50: > 50 µM

## CCOc1ccc(NC(=O)c2ccc(-n3cnnn3)cc2)cc1
[1]
  IC50: 34 µM
[2]
  IC50: > 30 µM

## Clc1ccc(Cn2cc(-c3ccncc3)cn2)c(Cl)c1
[1]
  IC50: 0.23 µM
[4]
  Kd: 3.6 µM
[5]
  Kd: 0.38 µM
[2]
  IC50: 0.5 µM

## O=C(Nc1ccccc1)OCc1cn(-c2ccc(Cl)cc2)nn1
[1]
  IC50: > 20 µM

## CCOC(=O)C(Cc1ccc(Cl)cc1Cl)c1ccno1 (centres undefined)
[1]
  IC50: 12 µM
[2]
  IC50: 11 µM

## CCn1c(SCc2ccc(OC)cc2)nnc1-c1ccncc1
[1]
  IC50: 28 µM
[2]
  IC50: > 50 µM

## CCC1COC(Cn2cncn2)(c2ccc(Cl)cc2Cl)O1 (centres undefined) [ETACONAZOLE]
[1]
  IC50: 0.21 µM
[5]
  Kd: 0.21 µM
[2]
  IC50: > 50 µM

## Clc1ccc(OC(Cn2ccnc2)c2ccc(Cl)cc2Cl)c(Cl)c1 (centres undefined)
[1]
  IC50: 0.06 µM
[2]
  IC50: 10 µM

## CS(=O)(=O)OCC1COC(Cn2cncn2)(c2ccc(Cl)cc2Cl)O1 (centres undefined)
[1]
  IC50: 7.7 µM
[5]
  Kd: 3.5 µM
[2]
  IC50: > 50 µM

## Brc1ccc(-n2c(SCc3ccccc3)nnc2-c2ccncc2)cc1
[1]
  IC50: 1.3 µM
[2]
  IC50: 4.3 µM

## Cc1cnc(CNc2cc(-c3ccccc3)nc(-c3cccnc3)n2)nc1
[1]
  IC50: 9.6 µM
[2]
  IC50: 21 µM

## O[C@](Cn1cccn1)(c1ccc(F)cc1F)n1cncn1
[1]
  IC50: 44 µM
[2]
  IC50: > 50 µM

## Cc1cc(C(C)(C)NC(=O)C(Br)C(C)(C)C)cc(C)n1 (centres undefined)
[1]
  IC50: 13 µM
[2]
  IC50: > 50 µM

## Cc1cnc(CNc2cc(-c3ccccc3)nc(-c3ccccn3)n2)nc1
[1]
  IC50: > 40 µM
[2]
  IC50: > 50 µM

## Clc1ccc(C2(Cn3cncn3)CC(Br)CO2)c(Cl)c1 (centres undefined) [BROMUCONAZOLE]
[1]
  IC50: 0.13 µM
[2]
  IC50: 8.1 µM

## COc1ccc(-c2cc(CNS(=O)(=O)c3ccccc3)on2)cc1
[1]
  IC50: 33 µM
[2]
  IC50: 39 µM

## CS(=O)(=O)Cc1cc(N2CCCC2)nc(-c2ccccc2)n1
[1]
  IC50: > 40 µM
[2]
  IC50: > 50 µM
